Data taken from ChEMBL document CHEMBL6078690, “Targeting HMGB1 and Its Interaction with Receptors: Challenges and Future Directions” (J Med Chem, 2024).
pIC50, pKd: −log10 of the molar value.

system: RAW264.7; assay: Anti-inflammatory activity against mouse RAW264.7 cells assessed as inhibition of LPS-induced NO production

Row | pIC50 | Structure (SMILES)
1 | 5.30 | CC1(C)[C@@H](OC(=O)CCC(=O)O)CC[C@]2(C)[C@H]3C(=O)C=C4[C@@H]5C[C@@](C)(C(=O)O)CC[C@]5(C)CC[C@@]4(C)[C@]3(C)CC[C@@H]12 [CARBENOXOLONE]
2 | 4.80 | COc1ccc(/C=C/C(=O)C[C@H]2CC[C@]3(C)[C@H]4C(=O)C=C5[C@@H]6C[C@@](C)(C(=O)Oc7cn(C8O[C@@H](OC(C)=O)[C@@H](OC(C)=O)[C@@H](OC(C)=O)[C@@H]8OC(C)=O)nn7)CC[C@]6(C)CC[C@@]5(C)[C@]4(C)CC[C@H]3C2(C)C)cc1 (stereo not given in full)
3 | 4.87 | COC(=O)C(Cc1c[nH]c2ccccc12)NC(=O)[C@@]1(C)CC[C@]2(C)CC[C@]3(C)C(=CC(=O)[C@@H]4[C@@]5(C)CCC(OC(=O)CCCCC6CCSS6)C(C)(C)[C@@H]5CC[C@]43C)[C@@H]2C1 (stereo not given in full)

Row | Structure (SMILES) | pIC50
4 | O=C(O[C@@H]1Cc2c(O)cc(O)cc2O[C@@H]1c1cc(O)c(O)c(O)c1)c1cc(O)c(O)c(O)c1 [EPIGALOCATECHIN GALLATE] | > 6.00

biological target: T1, High mobility group protein B1 (Homo sapiens, UniProt P09429)
T1 sequence (P09429 whole entry): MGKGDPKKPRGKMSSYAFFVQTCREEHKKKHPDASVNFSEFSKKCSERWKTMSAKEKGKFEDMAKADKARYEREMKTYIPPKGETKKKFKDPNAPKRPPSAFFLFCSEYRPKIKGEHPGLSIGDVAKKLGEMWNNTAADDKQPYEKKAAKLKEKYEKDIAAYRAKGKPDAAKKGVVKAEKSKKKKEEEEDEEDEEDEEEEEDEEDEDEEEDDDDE
Description: Binding affinity to HMGB1 (unknown origin) assessed as dissociation constant by SPR analysis

Row | pKd | Structure (SMILES)
5 | 6.59 | C[C@@H]1O[C@@H](OC[C@H]2O[C@@H](Oc3c(-c4ccc(O)c(O)c4)oc4cc(O)cc(O)c4c3=O)[C@H](O)[C@@H](O)[C@@H]2O)[C@H](O)[C@H](O)[C@H]1O [RUTIN]
6 | 6.92 | COc1ccc(-c2coc3cc(O)ccc3c2=O)cc1O [CALYCOSIN]
7 | 6.00 | CC(=O)Oc1ccccc1C(=O)O [ASPIRIN]
8 | 4.80 | O=C(O)c1cc(-c2ccc(F)cc2F)ccc1O [DIFLUNISAL]
9 | 7.00 | O=c1c(O[C@@H]2O[C@H](CO)[C@@H](O)[C@H](O)[C@H]2O)c(-c2ccc(O)c(O)c2)oc2cc(O)cc(O)c12 [ISOQUERCETIN]
10 | 5.35 | CO[C@H]1O[C@H](COS(=O)(=O)O)[C@@H](O[C@@H]2O[C@@H](C(=O)O)[C@@H](COC[C@H]3O[C@H](COS(=O)(=O)O)[C@@H](O[C@@H]4O[C@H](C(=O)O)[C@@H](COC[C@H]5O[C@H](COS(=O)(=O)O)[C@@H](O)[C@H](O)[C@H]5NS(=O)(=O)O)[C@H](O)[C@H]4O)[C@H](OS(=O)(=O)O)[C@H]3NS(=O)(=O)O)[C@H](O)[C@H]2OS(=O)(=O)O)[C@H](O)[C@H]1NS(=O)(=O)O
